Consider three molecules from paper PMC8238948, “Potent inhibitors of toxic alpha-synuclein identified via cellular time-resolved FRET biosensors” (NPJ Parkinson's Disease, 2021).

One assay concerns the target T1, recombinant αSN (Homo sapiens, UniProt P37840).
T1 construct: made in house; host or cells: Escherichia coli BL21(DE3), T7-7 plasmid
The assay can be described thus: Non-seeded Thioflavin-T assay (monomer induced aggregation). The format is biochemical. To be noted: 140 μM αSN monomer, 70 μM compound (1:2), 900 RPM, 37 °C. The procedure:
ThT aggregation assays monitor the kinetics and extent of fibril formation due to spontaneous and seeded aggregation[26],[92]–[95]. The cascade of spontaneous αSN fibrillization includes formation and maturation of oligomeric αSN assemblies[96],[97]. Figure 10 presents spontaneous ThT aggregation for αSN(m) (140 µM) with or without hit compounds RO, DEM, and Bay (70 µM; a sub-stoichiometric ratio, 1:2, compound:protein).
Fig. 10 Monomer induced aggregation of αSN (non-seeded Thioflavin-T assay). Recombinant αSN was incubated at 140 μM monomer (70 μM compound) under continuous shaking (900 RPM) at 37 °C. All three hit compounds modulated αSN fibrillization with RO having a more significant effect over Bay and DEM, respectively.
ThT (Sigma, product no. T3516) was dissolved in PBS buffer and was filtered through a 0.2-µm syringe filter to make a stock solution of 2.5 mM. Working ThT concentration was 20 µM. PFF seeds were produced via constant agitation of 1000 RPM at 37 °C (ThermoMixer-C, Eppendorf, Hauppauge, NY) of 500 µL of 350 µM αSN in PBS in a 2 mL tube for 5 days. PFFs were aliquoted and flash frozen and stored at −80 °C until further use. PFF seeds were rapidly thawed, diluted to 35 µM in PBS, and sonicated 120 pulses at 50% using a probe-tip sonicator following the established protocols. Master mix samples for each of the different ThT assays were prepared and dispensed in triplicate as 50 µL in 384-well flat, black-bottom polypropylene plates (PN 781209, Greiner Bio-One) and sealed with fluorescently transparent film. Conditions for non-seeded, seeded, and cell homogenate assays varied slightly.
Non-seeded ThT master mix was prepared in cell culture PBS with 140 µM (2 mg/mL) αSN(m) and dispensed into compound plates at 70 µM final compound concentration (1:2 compound:protein ratio).

Assay [1] deals with T2, intra-protomeric αSN biosensor (GFP-αSN-RFP) in HEK293 cells (Homo sapiens, UniProt P37840).
T2 construct: In addition to full-length αSN fusion constructs, we observe both C-terminally and N-terminally truncated αSN species; expressed in transfected cells; host or cells: HEK293
The assay can be described thus: FRET response on intra-protomeric αSN biosensor. The format is cell-based. Conditions: 10 µM. On the procedure:
Hits were also evaluated with the intra-protomeric αSN and control, non-specific biosensors. […] The compounds RO, BAY, and DEM as well as the control EGCG each reduced FRET, indicating either reduction in oligomerization or expanded oligomer conformation. Tests of these compounds in two control biosensor systems (GFP/RFP at 1:8 and GFP-linker32-RFP; see Supplementary Fig. 13a, b, respectively) show no significant FRET change.
Fig. 7 FRET response to pilot HTS hits on intra-protomeric αSN biosensor. […] With both donor and acceptor XFP fused to one construct, this biosensor is sensitive to both oligomer formation as well as conformation. […] Experiments were performed with n = 3; *p < 0.05, **p < 0.01, ***p < 0.001, ns indicates no significant difference as determined by Student’s t test.

Assay [2] deals with primary mouse hippocampal neurons treated with murine-PFF. The assay can be described thus: Primary neuron model of αSN PFF pathology. It is filed as cell-based. Conditions: 1 µM compound, co-treatment with murine-PFF for 12 days. The source says: As described previously, numerous in vivo and in vitro alpha-synucleinopathy mouse models have been developed using treatment with sonicated αSN PFF to model pathology. PFF treatment of primary mouse hippocampal neurons results in neurotoxicity and increased phosphoserine-129 (pS^129) immunoreactivity, a marker for alpha-synucleinopathy pathology[87],[88]. These effects can be produced using either human-PFF or murine-PFF with the murine-PFF providing a stronger response. Primary neurons (7 days in vitro (DIV)) were treated for 12 days with murine-PFF or PBS and 1 µM hit compound or DMSO (compound vehicle). Neurons were fixed and stained for NeuN (neuronal nuclei), Map2 (neurite and neuronal morphology), and 81a (pS^129) (see Supplementary Fig. 16). […] Future studies focused on hit-to-lead optimization will focus on these nuances to resolve hit compound’s MOA.
Primary neuronal cultures were prepared from CD1 embryos on E16–18, as previously described. Primary mouse neuron protocol was approved by the University of Pennsylvania Institutional Animal Care and Use Committee. Tissue culture plates and coverslips were coated with Poly-D-lysine (Sigma) before addition of cells. Neurons were plated in 96-well plates (60,000 cells/cm^2). Cultures were maintained in Neurobasal medium supplemented with B27 and Glutamax (all from Invitrogen).
PFF treatment was performed at 7 DIV and cultures were incubated for a further 12 days prior to fixation and analysis. […] PFF concentrations are expressed as the total equivalent αSN monomer content in the preparation. […]
Cultured neurons were fixed by replacing media with warm PFA (4% in PBS containing 4% sucrose) for 15 min at RT. […] Image analysis and quantification was performed using the InCell Toolbox Analyzer software (GE Healthcare Life Sciences). The total integrated area for 81a immunopositivity was quantified for each sample and then normalized (divided) by the number of NeuN-positive objects in the fields examined.

Entries after “also recorded” stand apart in the source; their conditions may differ. Counter-ions that a name gives are not always drawn.

For the molecule `Nc1ccc(-c2nc3ccc(-c4nc5ccc(N)cc5[nH]4)cc3[nH]2)cc1` [RO, Ro 90–7501], at recombinant αSN, the “ThT signal, spontaneous (non-seeded) aggregation” value was “significant ThT signal reduction”. In addition, in assay [1], the “change in intra-protomeric FRET” value is “reduced FRET”. In assay [2], the “pS129 pathology staining (81a/NeuN)” value is reported as “little to no effect”.
On the same counts, the results for `CN(C)[C@@H]1C(O)=C(C(N)=O)C(=O)[C@@]2(O)C(O)=C3C(=O)c4c(O)ccc(Cl)c4[C@@H](O)[C@H]3C[C@@H]12` [DEM, Demeclocycline HCl] are “lesser degrees of attenuation”, “reduced FRET” and “reduced the αSN pathology; also recorded: reduces the pS^129 phenotype”.
Taken in the same sequence, the figures for `COC(=O)C1=C(C)NC(C)=C([N+](=O)[O-])C1c1ccccc1C(F)(F)F` (racemic) [BAY, (±)-Bay K 8644] were “lesser degrees of attenuation”, “reduced FRET” and “reduced the αSN pathology; also recorded: reduces the pS^129 phenotype”.
